# Reference: patent publication US10898548B2, “Modulators of protein tyrosine phosphatase and uses thereof” (LEUVAS THERAPEUTICS, priority 2015, dated 2021)
# Experiments:
# JAK2 (pYpY1007/1008) = experiment: p-JAK2 ELISA on monocytes; type: cell-based, human; conditions: 1 hour, 50 nM fMLP 90 sec, CTRL 100
# Source text: JAK2 regulation by PTPRG as assessed through the high-throughput phospho-proteomics analysis evidenced that PTPRG activation (Example 4, Table 9 and 10) provides a useful example of the exploitation of this analysis system for identification of targets and unexpected indications/uses for known and novel agents that regulate the phoshoproteome. […] Furthermore, the capability of fMLP to trigger JAKs activation has never been observed. The results described in Example 4 unexpectedly implicate JAK2 de-phosphorylation by PTPRG as playing a role in the anti-adhesive role of PTPRG on monocytes. To test this system-generated hypothesis we first set out to define the role of JAK2 in fMLP-triggered rapid adhesion in monocytes. Time course experiments, either performed with ELISA assay or Western Blot. Briefly, purified human monocytes were treated with buffer (resting) or with 50 nM fMLP for the indicated times (Table 12), and the phosphorylation was assessed by p-Jak2 elisa and Western Blot analysis. The JAK2 activation was determined with Elisa Kit JAK2 (pYpY1007/1008) (Invitrogen). Briefly, cells were stimulated with agonist and lysed following manufacturer's protocol; levels of phospho-JAK2 were quantified (absorbance at 450 nm) with a micro-well plate reader (Victor™ X5 Multilabel Plate Reader, Perkin Elmer). For Western blot analysis, cells were lysed in ice-cold 1% Nonidet P-40 buffer, containing phosphatase inhibitors and complete protease inhibitor cocktail (Roche). Total cell lysates were quantified by Bradford assay (Bio-Rad). Equal amounts of total lysates or of isolated membranes (as described in Example 1) were subjected to 10% SDS-PAGE and then blotted. After incubation with anti-PTPRG, anti gp91^Phox, anti phospho-JAK2, anti JAK2 and HRP-linked secondary antibodies (GE Healthcare), immunoreactive bands were visualized by ECL detection (EMD Millipore). Intensities of band signals were quantified by densitometric analysis (Quantity One, Bio-Rad) by using ImageQuant Las4000. Data are mean value of three experiments; the relative ratio of the band intensity of phosphor-JAK2 was normalized to the level of JAK2 band intensities.
# Briefly, p-JAK2 ELISA assay on human monocytes treated with buffer (CTRL=control), 50 μM P1-WD, P1 or P1-WD scrambled peptides (Table 17), or with buffer (CTRL=control), 0.5 uM TAT-ICD or 50 μM TAT peptide (Table 18) for 1 hour at 37° C. and stimulated with 50 nM fMLP for 90 sec. Shown are percentages of fold increases over the control; mean values of 3 experiments in triplicate.
# U251 GBM cells = experiment: MTT survival assay, U251 GBM cells; type: cell-based
# Protocol: (§1) Briefly, U251 GBM cells, normal primary cortical murine neurons and a mixed culture of murine microglia and astrocytes were treated for 24, 48 and 72 hours with no treatment (control), delivery peptide (P1 or TAT) or increasing concentrations of P1-WD or TAT-ICD. Cell viability and survival was measured using the MTT assay, a colorimetric assay for assessing cell metabolic activity set up under conditions where the absorption reflects the number of viable cells present (Table 21 and 22) and expressed as relative absorption at 570 nm. Early apoptosis was measured using VYBRANT DyeCycle Violet stain (Molecular Probes), a DNA-selective, cell membrane-permeant dye that can distinguish the compacted state of the nuclear chromatin in apoptotic cells as determined by flow cytometry and presented as the percent of cells that are apoptotic (Table 23 and 24). The actual number of cells following treatment with TAT-ICD or TAT alone (Table 25) was determined using flow cytometry compared to an input of 5,000 cells at time zero. To confirm apoptosis the TUNEL labeling assay, which detects DNA strand breaks in apoptotic cells by fluorescence microscopy, was also used to examine U251 cells treated with the PTPRG WD. Briefly, the assay used an optimized terminal transferase ([…]) to label 3′OH ends in genomic DNA with TMR-dUTP, thus allowing the measurement and quantification of cell death by apoptosis. U251 cells were pretreated for 1, 3 and 6 hours with 50 μM P1-WD. Then cells were fixed and permeabilized, incubated with TUNEL reaction mixture for 1 h at RT, and then stained with DAPI (for nuclei detection) and with Alexa670-Phalloidin (to detect actin in cell membranes). After the staining steps, cells were visualized with a confocal microscope.
# U251 cells = experiment: TUNEL labeling assay, U251 cells; type: cell-based; conditions: 50 μM P1-WD
# Protocol: as §1
# This finding was validated using the TUNEL in situ apoptosis cell death detection staining.
# T98G GBM cells = experiment: MTT survival assay, T98G GBM cells; type: cell-based, human
# Protocol: The DBTRG-O5MG (Denver Brain Tumor Research Group 05) cell line was established from tissue from a patient with glioblastoma multiforme who had been treated with local brain irradiation and multi drug chemotherapy (Kruse C A, et al. 1992 In vitro Cell Dev Biol, 28A(9-10):609-14). U87 is a commonly studied and thoroughly characterized grade IV glioma cell line derived from malignant glioma (Clark M J, et al, 2010 Plos Genet. 6(1):e1000832.). T98G is a glioblastoma multiforme cell line extracted from a person (Stein G H, 1979, J. Cell Physiol, 99(1):43-54). Proliferation and survival were assessed following TAT-ICD or control peptide (Table 29) or the P1-WD or control peptide treatment using the MTT assay as described above. Data are relative absorption; mean and standard deviation.
# COS7 cells = experiment: MTT assay, COS7 cells; type: cell-based
# [1] = 50 μM P1-WD, P1 or P1-WD scrambled
# [2] = P1 or P1-WD 50 uM, 24 hours, control 821
# [3] = P1 or P1-WD 50 uM, 48 hours, control 1943
# [4] = P1 or P1-WD 50 uM, 72 hours, control 2556
# [5] = P1 or P1-WD 50 μM, 24 hours, Control 971
# [6] = P1 or P1-WD 50 μM, 48 hours, Control 1305
# [7] = P1 or P1-WD 50 μM, 72 hours, Control 1481
# [8] = 0.5 uM TAT-ICD or 50 μM TAT peptide
Substance,"p-JAK2 ELISA, percentages of fold increases over the control (JAK2 (pYpY1007/1008); [1]) [%]",MTT relative absorption at 570 nM (U251 GBM cells; [2]),MTT relative absorption at 570 nM (U251 GBM cells; [3]),MTT relative absorption at 570 nM (U251 GBM cells; [4]),"DNA fragmentation, TUNEL staining (U251 cells)",absorbance in the MTT assay (T98G GBM cells; [5]),absorbance in the MTT assay (T98G GBM cells; [6]),absorbance in the MTT assay (T98G GBM cells; [7]),"p-JAK2 ELISA, percentages of fold increases over the control (JAK2 (pYpY1007/1008); [8]) [%]","mean absorbance in the MTT assay (COS7 cells; 0.1 μM, 24 hours, CTRL 700)","mean absorbance in the MTT assay (COS7 cells; 0.1 μM, 48 hours, CTRL 1267)","mean absorbance in the MTT assay (COS7 cells; 0.1 μM, 72 hours, CTRL 1500)","mean absorbance in the MTT assay (COS7 cells; 0.25 μM, 24 hours, CTRL 700)","mean absorbance in the MTT assay (COS7 cells; 0.25 μM, 48 hours, CTRL 1267)","mean absorbance in the MTT assay (COS7 cells; 0.25 μM, 72 hours, CTRL 1500)","mean absorbance in the MTT assay (COS7 cells; 0.5 μM, 24 hours, CTRL 700)","mean absorbance in the MTT assay (COS7 cells; 0.5 μM, 48 hours, CTRL 1267)","mean absorbance in the MTT assay (COS7 cells; 0.5 μM, 72 hours, CTRL 1500)",further results
"P1-WD: fusion Trojan peptide SEQ ID 3: Penetratin, glycine, PTPRG wedge domain aa 831-856; RQIKIWFQNRRMKWKKGKQFVKHIGELYSNNQHGFSEDFEEVQ (listed as Homo sapiens)",51,411,733,1060,fragmented DNA as early as 3 hours after initiation of treatment,540,744,842,–,–,–,–,–,–,–,–,–,–,"MTT relative absorption at 570 nM (U251 GBM cells; P1-WD 10 uM, 24 hours, control 821): 656; MTT relative absorption at 570 nM (U251 GBM cells; P1-WD 10 uM, 48 hours, control 1943): 1400; MTT relative absorption at 570 nM (U251 GBM cells; P1-WD 10 uM, 72 hours, control 2556): 1593; MTT relative absorption at 570 nM (U251 GBM cells; P1-WD 25 uM, 24 hours, control 821): 469; MTT relative absorption at 570 nM (U251 GBM cells; P1-WD 25 uM, 48 hours, control 1943): 820; MTT relative absorption at 570 nM (U251 GBM cells; P1-WD 25 uM, 72 hours, control 2556): 1281; absorbance in the MTT assay (T98G GBM cells; P1-WD 10 μM, 24 hours, Control 971): 629; absorbance in the MTT assay (T98G GBM cells; P1-WD 10 μM, 48 hours, Control 1305): 854; absorbance in the MTT assay (T98G GBM cells; P1-WD 10 μM, 72 hours, Control 1481): 985; absorbance in the MTT assay (T98G GBM cells; P1-WD 25 μM, 24 hours, Control 971): 555; absorbance in the MTT assay (T98G GBM cells; P1-WD 25 μM, 48 hours, Control 1305): 697; absorbance in the MTT assay (T98G GBM cells; P1-WD 25 μM, 72 hours, Control 1481): 835"
"P1: Penetratin delivery peptide, 16 aa RQIKIWFQNRRMKWKK (SEQ ID 4), control [reference compound]",95,600,1743,2294,did not show fragmented DNA or cell loss,1113,1019,1111,–,–,–,–,–,–,–,–,–,–,–
TAT (GRKKRRQRRRPPQ; listed as Homo sapiens) [reference compound],–,–,–,–,did not show fragmented DNA or cell loss,–,–,–,99,649,1320,1495,624,1250,1388,650,1289,1341,"MTT relative absorption at 570 nM (U251 GBM cells; TAT 50 uM, 24 hrs, Control 821): 825; MTT relative absorption at 570 nM (U251 GBM cells; TAT 50 uM, 48 hrs, Control 1943): 1654; MTT relative absorption at 570 nM (U251 GBM cells; TAT 50 uM, 72 hrs, Control 2556): 2068; absorbance in the MTT assay (T98G GBM cells; TAT 500[…]μM, 24 hours, CTRL 971): 954; absorbance in the MTT assay (T98G GBM cells; TAT 500[…]μM, 48 hours, CTRL 1305): 1237; absorbance in the MTT assay (T98G GBM cells; TAT 500[…]μM, 72 hours, CTRL 1481): 1205"
TAT-ICD: fusion recombinant protein SEQ ID 5: PTPRG intracellular domain aa 797-1445 fused to 13 aa TAT sequence,–,–,–,–,–,–,–,–,53,674,1391,1481,684,1289,1489,694,1295,1461,"MTT relative absorption at 570 nM (U251 GBM cells; TAT-ICD 0.5 uM, 24 hrs, Control 821): 568; MTT relative absorption at 570 nM (U251 GBM cells; TAT-ICD 0.5 uM, 48 hrs, Control 1943): 969; MTT relative absorption at 570 nM (U251 GBM cells; TAT-ICD 0.5 uM, 72 hrs, Control 2556): 1630; MTT relative absorption at 570 nM (U251 GBM cells; TAT-ICD 1.0 uM, 24 hrs, Control 821): 353; MTT relative absorption at 570 nM (U251 GBM cells; TAT-ICD 1.0 uM, 48 hrs, Control 1943): 526; MTT relative absorption at 570 nM (U251 GBM cells; TAT-ICD 1.0 uM, 72 hrs, Control 2556): 830; MTT relative absorption at 570 nM (U251 GBM cells; TAT-ICD 2.0 uM, 24 hrs, Control 821): 244; MTT relative absorption at 570 nM (U251 GBM cells; TAT-ICD 2.0 uM, 48 hrs, Control 1943): 236; MTT relative absorption at 570 nM (U251 GBM cells; TAT-ICD 2.0 uM, 72 hrs, Control 2556): 279; absorbance in the MTT assay (T98G GBM cells; TAT-ICD 0.5 μM, 24 hours, CTRL 971): 921; absorbance in the MTT assay (T98G GBM cells; TAT-ICD 0.5 μM, 48 hours, CTRL 1305): 1301; absorbance in the MTT assay (T98G GBM cells; TAT-ICD 0.5 μM, 72 hours, CTRL 1481): 1061; absorbance in the MTT assay (T98G GBM cells; TAT-ICD 1 μM, 24 hours, CTRL 971): 745; absorbance in the MTT assay (T98G GBM cells; TAT-ICD 1 μM, 48 hours, CTRL 1305): 947; absorbance in the MTT assay (T98G GBM cells; TAT-ICD 1 μM, 72 hours, CTRL 1481): 935; absorbance in the MTT assay (T98G GBM cells; TAT-ICD 2 μM, 24 hours, CTRL 971): 552; absorbance in the MTT assay (T98G GBM cells; TAT-ICD 2 μM, 48 hours, CTRL 1305): 687; absorbance in the MTT assay (T98G GBM cells; TAT-ICD 2 μM, 72 hours, CTRL 1481): 625"
